Reference: PMC4648050, “Discovery of Inhibitors of Trypanosoma brucei by Phenotypic Screening of a Focused Protein Kinase Library” (Chemmedchem, 2015)
Converted amounts (≈) assume the structure as drawn. “Also recorded” adds a separate entry of the source. Like-named read-outs stand apart in the source and are kept apart here.

What was measured:
[1] = test system: MRC5 cells (human lung fibroblasts); experiment: MRC5 proliferation assay; format: cell-based; conditions: geometric mean of two or more determinations
Experimental: (§1) Trypanosome and MRC5 proliferation assay: Measurement of inhibition of the proliferation of MRC5 cells (human lung fibroblasts) and T. brucei bloodstream-stage cells was performed using a modification of a cell viability assay previously described.[35, 36] Compounds ([…] to 0.5 nM) were incubated with 2×10^3 cells per well in 0.2 mL of the appropriate culture medium (MEM with 10 % foetal bovine serum for MRC5 cells) in clear 96-well plates. Plates were incubated at 37 °C in the presence of 5 % CO2 for 69 h. Resazurin was then added to a final concentration of 50 μM, and plates were incubated as above for a further 4 h before being read on a BioTek Flx800 fluorescence plate reader.

T. b. brucei = experiment: Trypanosome proliferation assay; format: cell-based, Trypanosoma brucei brucei; conditions: for EC50: geometric mean of two or more determinations, standard cell viability (resazurin) assay, read-out: EC50 T. b. brucei; for fold loss of activity (T. b. brucei EC50): relative to the comparator compound
Experimental: as §1

[2] = Plasma protein binding (equilibrium dialysis); format: in vitro ADME; conditions: mouse plasma, equilibrium dialysis; for fraction unbound at 5 h, 10 μg g^−1: female, CD1, read-out: PPB
Experimental: Plasma protein binding experiments: In brief, a 96-well equilibrium dialysis apparatus was used to determine the free fraction in plasma for each compound (HT Dialysis LLC, Gales Ferry, CT, USA). Membranes (12-14 kDa cutoff) were conditioned in deionised H2O for 60 min, followed by conditioning in 80:20 deionised H2O/EtOH for 20 min, and then rinsed in isotonic buffer before use. Female CD1 mouse plasma was removed from the freezer and allowed to thaw on the day of experiment. Thawed plasma was then centrifuged (Allegra […], Beckman Coulter, USA), spiked with test compound (10 μg g^-1), and 150 μL aliquots (n=6 replicate determinations) loaded into the 96-well equilibrium dialysis plate. Dialysis against isotonic buffer (150 μL) was carried out for 5 h in a temperature-controlled incubator at ∼37 °C (Barworld Scientific Ltd., UK) using an orbital microplate shaker at 125 rpm (Barworld Scientific). At the end of the incubation period, aliquots of plasma or buffer were transferred to micronic tubes (Micronic B.V., the Netherlands), and the composition in each tube was balanced with control fluid such that the volume of buffer to plasma is the same. Sample extraction was performed by the addition of 400 μL MeCN containing an appropriate internal standard. Samples were allowed to mix for 1 min and then centrifuged at 3000 rpm in 96-well blocks for 15 min (Allegra […], Beckman Coulter, USA). All samples were analysed by UPLC-MS/MS on a Quattro Premier XE Mass Spectrometer (Waters Corp.). The unbound fraction was determined as the ratio of the peak area in buffer to that in plasma.

[3] = Kinetic aqueous solubility (laser nephelometry); format: physicochemical; conditions: Milli-Q water with 2.5% DMSO, kinetic from dmso stock, range 250–12 μM, read-out: Aq. Sol. (aqueous kinetic solubility)
Experimental: Solubility experiments: The kinetic aqueous solubility of the test compounds was measured using laser nephelometry. Compounds were subject to serial dilution from 10 mM to 0.5 mM in DMSO. An aliquot was then mixed with Milli-Q H2O to obtain an aqueous dilution plate with a final concentration range of 250–12 μM, with a final DMSO concentration of 2.5 %. Triplicate aliquots were transferred to a flat-bottomed polystyrene plate which was immediately read on the NEPHELOstar (BMG Lab Technologies). The amount of laser scatter caused by insoluble particulates (relative nephelometry units, RNU) was plotted against compound concentration using a segmental regression fit, with the point of inflection being quoted as the compounds′ aqueous solubility (in μM).

[4] = Intrinsic clearance in mouse liver microsomes; format: in vitro ADME; conditions: mouse hepatic microsomes, 0.5 μM compound
Experimental: Intrinsic clearance experiments: Test compound (0.5 μM) was incubated with female CD1 mouse liver microsomes (Xenotech LLC; 0.5 mg mL^−1 50 mM potassium phosphate buffer, pH 7.4), and the reaction started with the addition of excess NADPH (8 mg mL^−1 50 mM potassium phosphate buffer, pH 7.4). Immediately, at t0, then at 3, 6, 9, 15, and 30 min an aliquot (50 μL) of the incubation mixture was removed and mixed with MeCN (100 μL) to stop the reaction. Internal standard was added to all samples, the samples were centrifuged to sediment precipitated protein, and the plates were then sealed prior to UPLC–MS/MS analysis using a Quattro Premier XE instrument (Waters Corp., USA). XLfit (IDBS, UK) was used to calculate the exponential decay and consequently the rate constant (k) from the ratio of peak area of test compound to internal standard at each time point. The rate of intrinsic clearance [CLint, mL min^−1 (g liver)^−1] of each test compound was then calculated with Equation (3): […]
in which V [mL (mg protein)^−1] is the incubation volume per mg protein added, and microsomal protein yield is taken as 52.5 mg protein per gram of liver. Verapamil (0.5 μM) was used as a positive control to confirm acceptable assay performance.

[5] = test system: T. brucei bloodstream-stage cells; experiment: Static–cidal (SC) assay; format: cell-based, Trypanosoma brucei brucei; conditions: for EC50 / MCC: Trypanosoma brucei; for EC50: 48 h; for MCC: static–cidal assay in triplicate, read-out: MCC (minimal cidal concentration); for Mode: static/cidal classification from growth curves; for mode of antiparasitic effect (in words): text and figure legend, at concentrations tested; for plateau of dose–response curve (inhibition): static–cidal dose–response curve
Experimental: Determination of cidality against T. brucei bloodstream-stage cells was performed using a static–cidal (SC) assay as previously reported.[26] Briefly, bloodstream-form trypanosomes were seeded into 384-well plates at 4×10^5 mL^−1 (50 μL per well), followed by immediate addition of resazurin (50 μM final) to one of the plates, and all plates were incubated at 37 °C, 5 % CO2. After 4 h the t0 plate was read using a PerkinElmer Victor 3 plate reader (λex=528 nm, λem=590 nm). The second plate was processed in the same manner 20 h later, and at 44 h the last plate was processed. The minimum cidal concentration (MCC) is defined as the lowest concentration of drug that results in a decrease of resorufin signal over time. For dose–response curves from this assay either a monophasic or a biphasic equation was used, depending on which one provided the best fit. For monophasic fits, the following four-parametric equation [Eq. (1)] was used:
in which A=percent inhibition at bottom, B=percent inhibition at top, C=EC50, D=slope, x=inhibitor concentration, and y=percent inhibition. Equation (2) was used for biphasic fits:
for which A=percent inhibition at mid-plateau, B=slope, C=log[SC EC50(1)], D=log[SC EC50(2)]. Thus SC EC50(1) is the EC50 for the first phase of the curve, and SC EC50(2) is that for the second phase. Inhibition at the bottom of the curve is fixed at 0 % and at the top, 100 %.

[6] = static cidal EC50, first site/phase, read-out: SC EC50(1)
[7] = static cidal EC50, second site/phase, read-out: SC EC50(2)

SMILES | EC50 [1] [nM] | EC50 (T. b. brucei; Trypanosoma brucei) [nM] | EC50 (T. b. brucei) [nM] | fraction unbound at 5 h, 10 μg g^−1 [2] | PPB [2] [% free] | solubility kinetic [3] [µM] | CLint [4] [mL/min/g] | fold loss of activity (T. b. brucei EC50) (T. b. brucei) | EC50 [5, 6] [nM] | EC50 [5, 7] [nM] | MCC [5] [µM] | Mode [5] | mode of antiparasitic effect (in words) [5] | plateau of dose–response curve (inhibition) [5] [% inhibition]
O=c1[nH]c2ncc(-c3ccccc3)nc2n1C1CCCCC1 [Compound 19] | > 50000 | 40 | 44 | 0.008 | 0.8 | 110 (≈ 32.4 µg/mL) | 3.6 |  |  |  |  |  |  | 
COc1ccc(-c2cnc3[nH]c(=O)n(C4CCCCC4)c3n2)cc1 [Compound 20] | 24000 | 330 |  | 0.007 |  |  |  |  |  |  |  |  |  | 
O=c1[nH]c2ncc(-c3ccc(CO)cc3)nc2n1C1CCCCC1 [Compound 21] | > 50000 | 400 |  | 0.047 |  |  |  | 10 fold |  |  |  |  |  | 
O=c1[nH]c2ncc(-c3cccc(CO)c3)nc2n1C1CCCCC1 [Compound 24] | > 50000 | 30 |  |  |  | > 250 |  |  | 70 | 30000 | > 50 | S | growth-slowing or static behaviour; also recorded: static at concentration tested | 
O=c1[nH]c2ncc(-c3ccccc3F)nc2n1C1CCCCC1 [Compound 26] | > 50000 | 60 |  | 0.007 |  | 20 (≈ 6.25 µg/mL) |  |  | 90 |  | > 50 |  | growth-slowing or static behaviour | 
O=c1[nH]c2ncc(-c3cccnc3)nc2n1C1CCCCC1 [Compound 30] | > 50000 | 100 | 120 | 0.023 |  |  | 2.8 |  | 230 |  | > 50 |  | growth-slowing or static behaviour | 
O=c1[nH]c2ncc(N3CCCCC3)nc2n1C1CCCCC1 [Compound 31, 1-Cyclohexyl-6-(piperidin-1-yl)-1H-imidazo[4,5-b]pyrazin-2(3H)-one] | > 50000 | 80 | 77 |  | 0 |  | 15 |  |  |  |  |  |  | 
O=c1[nH]c2ncc(N3CCOCC3)nc2n1C1CCCCC1 [Compound 32] | > 50000 | 50 |  |  |  | 220 (≈ 66.7 µg/mL) |  |  |  |  |  |  |  | 
O=c1[nH]c2ncc(-c3ccccc3)cc2n1C1CCCCC1 [Compound 51] | > 50000 | 54 | 50 | 0.029 |  | 36 (≈ 10.6 µg/mL) | 5.8 |  | 20 | 41000 | > 50 | S^[d] | growth-slowing or static behaviour | 
O=c1[nH]c2ncc(-c3cccnc3)cc2n1C1CCCCC1 [Compound 55] | > 50000 | 230 |  | 0.11 |  | 180 (≈ 53 µg/mL) | 2.7 | approximately 2 fold | 330 |  | > 50 |  | growth-slowing or static behaviour | 
c1ccc(-c2cnc3[nH]nc(C4CCCCC4)c3c2)cc1 [Compound 60] | > 50000 | 59 | 60 | 0.014 |  | 20 (≈ 5.55 µg/mL) | 15 |  | 80 | 7900 | 17 |  | cidal behaviour | 100
c1cncc(-c2cnc3[nH]nc(C4CCCCC4)c3c2)c1 [Compound 63] | > 50000 | 260 |  | 0.052 |  | 250 (≈ 69.6 µg/mL) | 6.6 |  | 280 | 6100 | 17 |  | cidal behaviour | 100
